Laboratory results taken from ChEMBL document CHEMBL3351929, “Halenaquinone inhibits RANKL-induced osteoclastogenesis” (Bioorg Med Chem Lett, 2014).
Active and inactive are the calls of the source. No cut-off for these calls is given here.

What was measured:
RAW264 [1] = test: Inhibition of sRANKL-induced TRAP activity in mouse RAW264 cells at 20 uM by p-nitrophenolate release based TRAP assay; format: functional, cell-based
[2] = Inhibition of sRANKL-induced TRAP activity in mouse RAW264 cells by p-nitrophenolate release based TRAP assay; format: functional, cell-based; conditions: RAW264.7
RAW264 [3] = test: Inhibition of sRANKL-induced osteoclastogenesis in mouse RAW264 cells assessed as reduction in TRAP-positive multinuclear osteoclasts formation at 20 uM incubated for 4 days by TRAP assay; format: functional, cell-based
[4] = Inhibition of chymotrypsin-like activity of proteasome in rat liver using Suc-Leu-Leu-Val-Tyr-MCA fluorogenic substrate
Mus musculus [5] = species: Mus musculus; test: Inhibition of sRANKL-induced […] degradation in mouse RAW264 cells at 20 uM pre-treated for 2 hrs before sRANKL stimulation measured 15 mins after sRANKL stimulation by Western blotting method; format: cell-based
Mus musculus [6] = species: Mus musculus; test: Inhibition of sRANKL-induced […] degradation in mouse RAW264 cells at 10 to 50 uM pre-treated for 2 hrs before sRANKL stimulation measured 15 mins after sRANKL stimulation by Western blotting method; format: cell-based
Mus musculus [7] = species: Mus musculus; test: Inhibition of sRANKL-induced AKT phosphorylation in mouse RAW264 cells at 20 uM pre-treated for 2 hrs before sRANKL stimulation measured 15 mins after sRANKL stimulation by Western blotting method; format: cell-based

IC50 [2]: 2000 nM
IC50 [4]: 600 nM
Compound: C[C@@]12CCC(=O)c3coc(c31)C(=O)c1cc3c(cc12)C(=O)C=CC3=O [HELENAQUINONE]
inhibition (RAW264 [1]): Active
inhibition (RAW264 [3]): Active
inhibition (Mus musculus [5]): Active
inhibition (Mus musculus [6]): Active
inhibition (Mus musculus [7]): Active
